The subject of this data set is CCRIS mutagenicity, Ames/micronucleus/aberration tests. As to the kind of experiment: CCRIS mutagenicity studies.

Activity calls are given as the source filed them. The rule behind the calls is not given here.

As for `O=c1oc2c([N+](=O)[O-])ccc3ccc4cccc1c4c32`, the mutagenic call is “active; positive” (Test System: AMES SALMONELLA TYPHIMURIUM, Strain/Indicator: TA98(1,8-DNP6), Metabolic Activation: NONE, Method: PREINCUBATION); “active; positive” (Test System: AMES SALMONELLA TYPHIMURIUM, Strain/Indicator: TA98(1,8-DNP6), Metabolic Activation: RAT, LIVER, S-9, AROCLOR 1254, Method: PREINCUBATION); “active; positive” (Test System: AMES SALMONELLA TYPHIMURIUM, Strain/Indicator: TA98(NR), Metabolic Activation: NONE, Method: PREINCUBATION); “active; positive” (Test System: AMES SALMONELLA TYPHIMURIUM, Strain/Indicator: TA98(NR), Metabolic Activation: RAT, LIVER, S-9, AROCLOR 1254, Method: PREINCUBATION); “active; positive” (Test System: AMES SALMONELLA TYPHIMURIUM, Strain/Indicator: TA98, Metabolic Activation: NONE, Method: PREINCUBATION); “active; positive” (Test System: AMES SALMONELLA TYPHIMURIUM, Strain/Indicator: TA98, Metabolic Activation: RAT, LIVER, S-9, AROCLOR 1254, Method: PREINCUBATION). Besides, the mutagenic call is, setting by setting: (Test System: AMES SALMONELLA TYPHIMURIUM, Strain/Indicator: TA100, Metabolic Activation: NONE, Method: PREINCUBATION) “active; positive”; (Test System: AMES SALMONELLA TYPHIMURIUM, Strain/Indicator: TA100, Metabolic Activation: RAT, LIVER, S-9, AROCLOR 1254, Method: PREINCUBATION) “active; positive”.

As to `CC(Br)C(Br)CCl` (stereo not given), the mutagenic call was “active; positive” (Test System: AMES SALMONELLA TYPHIMURIUM, Strain/Indicator: TA100, Metabolic Activation: RAT, LIVER, MICROSOMES, PHENOBARBITAL, Method: PREINCUBATION) and “active; positive” (Test System: AMES SALMONELLA TYPHIMURIUM, Strain/Indicator: TA100, Metabolic Activation: RAT, LIVER, MICROSOMES, Method: PREINCUBATION).

For `C/C=C/C`, the mutagenic call is “inactive; negative” (Test System: AMES SALMONELLA TYPHIMURIUM, Strain/Indicator: TA98, Metabolic Activation: NONE, Method: GAS EXPOSURE); “inactive; negative” (Test System: AMES SALMONELLA TYPHIMURIUM, Strain/Indicator: TA98, Metabolic Activation: RAT LIVER S-9, PHENOBARBITAL AND BETA-NAPHTHOFLAVONE (40%), Method: GAS EXPOSURE); “inactive; negative” (Test System: AMES SALMONELLA TYPHIMURIUM, Strain/Indicator: TA100, Metabolic Activation: NONE, Method: GAS EXPOSURE); “inactive; negative” (Test System: AMES SALMONELLA TYPHIMURIUM, Strain/Indicator: TA100, Metabolic Activation: RAT LIVER S-9, PHENOBARBITAL AND BETA-NAPHTHOFLAVONE (40%), Method: GAS EXPOSURE); “inactive; negative” (Test System: AMES SALMONELLA TYPHIMURIUM, Strain/Indicator: TA1535, Metabolic Activation: NONE, Method: GAS EXPOSURE); “inactive; negative” (Test System: AMES SALMONELLA TYPHIMURIUM, Strain/Indicator: TA1535, Metabolic Activation: RAT LIVER S-9, PHENOBARBITAL AND BETA-NAPHTHOFLAVONE (40%), Method: GAS EXPOSURE). Also, the mutagenic call by setting is: (Test System: AMES SALMONELLA TYPHIMURIUM, Strain/Indicator: TA1537, Metabolic Activation: NONE, Method: GAS EXPOSURE) “inactive; negative”; (Test System: AMES SALMONELLA TYPHIMURIUM, Strain/Indicator: TA1537, Metabolic Activation: RAT LIVER S-9, PHENOBARBITAL AND BETA-NAPHTHOFLAVONE (40%), Method: GAS EXPOSURE) “inactive; negative”; (Test System: E.COLI, Strain/Indicator: WP2UVRA, Metabolic Activation: NONE, Method: GAS EXPOSURE) “inactive; negative”; (Test System: E.COLI, Strain/Indicator: WP2UVRA, Metabolic Activation: RAT LIVER S-9, PHENOBARBITAL AND BETA-NAPHTHOFLAVONE (40%), Method: GAS EXPOSURE) “inactive; negative”.
